The record followed here is PubChem BioAssay AID248 (DTP/NCI, 2004).

This test relates to L1210 leukemia ip in BDF1 mice, survival T/C. The experiment in a line: NCI In Vivo Anticancer Drug Screen. Data for tumor model L1210 Leukemia (intraperitoneal) in B6D2F1 (BDF1) mice. The conditions noted are these: higher = longer survival. The method, boiled down:
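Transplanted-tumor mice were given test agent; controls received vehicle only. Survival readings from the two groups were divided (treated over control).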

Setting [1] is: endpoint: mean survival time, dose: 100.0 mg/kg/injection, schedule: Q01DX001 (ip), vehicle: carboxymethylcellulose (CMC).
[2] abbreviates: endpoint: mean survival time, dose: 100.0 mg/kg/injection, schedule: Q01DX009 (ip), vehicle: carboxymethylcellulose (CMC).
Where [3] appears, read: endpoint: mean survival time, dose: 200.0 mg/kg/injection, schedule: Q01DX001 (ip), vehicle: carboxymethylcellulose (CMC).
[4] abbreviates: endpoint: mean survival time, dose: 25.0 mg/kg/injection, schedule: Q01DX005 (ip), vehicle: other.
The mark [5] stands for this setting: endpoint: mean survival time, dose: 100.0 mg/kg/injection, schedule: Q01DX001 (ip), vehicle: saline.
Where [6] appears, read: endpoint: mean survival time, dose: 200.0 mg/kg/injection, schedule: Q01DX001 (ip), vehicle: saline.
[7] abbreviates: endpoint: mean survival time, dose: 400.0 mg/kg/injection, schedule: Q01DX001 (ip), vehicle: saline.
[8] abbreviates: endpoint: mean survival time, dose: 75.0 mg/kg/injection, schedule: Q01DX001 (ip), vehicle: saline.
Setting [9] is: endpoint: mean survival time, dose: 150.0 mg/kg/injection, schedule: Q01DX001 (ip), vehicle: saline.
Where [10] appears, read: endpoint: mean survival time, dose: 400.0 mg/kg/injection, schedule: Q01DX001 (ip), vehicle: carboxymethylcellulose (CMC).

Where “and” joins values, the source holds several entries; their conditions need not be identical. Identical values can stand only once. Toxic doses and inconclusive results are not listed.

Regarding `CCCCCN(C)/N=N/c1nc[nH]c1C(N)=O`, the T/C reads like this: (endpoint: mean survival time, dose: 7.5 mg/kg/injection, schedule: Q01DX Z (ip), vehicle: carboxymethylcellulose (CMC)) 102 % of control; (endpoint: mean survival time, dose: 10.0 mg/kg/injection, schedule: Q01DX Z (ip), vehicle: carboxymethylcellulose (CMC)) 110 % of control; (endpoint: mean survival time, dose: 11.0 mg/kg/injection, schedule: Q01DX009 (ip), vehicle: carboxymethylcellulose (CMC)) 101 % of control; (endpoint: mean survival time, dose: 15.0 mg/kg/injection, schedule: Q01DX Z (ip), vehicle: carboxymethylcellulose (CMC)) 119 % of control; (endpoint: mean survival time, dose: 16.75 mg/kg/injection, schedule: Q01DX009 (ip), vehicle: carboxymethylcellulose (CMC)) 100 % of control; (endpoint: mean survival time, dose: 25.0 mg/kg/injection, schedule: Q01DX009 (ip), vehicle: carboxymethylcellulose (CMC)) 118 % of control. Further, the T/C is 124 % of control (endpoint: mean survival time, dose: 37.5 mg/kg/injection, schedule: Q01DX009 (ip), vehicle: carboxymethylcellulose (CMC)); 117 % of control (endpoint: mean survival time, dose: 75.0 mg/kg/injection, schedule: Q01DX Z (ip), vehicle: carboxymethylcellulose (CMC)); 119 % of control under setting [1]; 154 % of control under setting [2]; 96 % of control (endpoint: mean survival time, dose: 120.0 mg/kg/injection, schedule: Q01DX015 (ip), vehicle: carboxymethylcellulose (CMC)); 108 % of control (endpoint: mean survival time, dose: 178.0 mg/kg/injection, schedule: Q01DX001 (ip), vehicle: carboxymethylcellulose (CMC)). Further, the T/C was 152 % of control under setting [3]; 117 % of control (endpoint: mean survival time, dose: 267.0 mg/kg/injection, schedule: Q01DX001 (ip), vehicle: carboxymethylcellulose (CMC)); 123 % of control (endpoint: mean survival time, dose: 600.0 mg/kg/injection, schedule: Q01DX001 (ip), vehicle: carboxymethylcellulose (CMC)); 112 % of control (endpoint: median survival time, dose: 12.5 mg/kg/injection, schedule: Q01DX011 (ip), vehicle: steriod suspending solution); 112 % of control (endpoint: median survival time, dose: 25.0 mg/kg/injection, schedule: Q01DX011 (ip), vehicle: steriod suspending solution); 218 % of control (endpoint: median survival time, dose: 100.0 mg/kg/injection, schedule: Q01DX011 (ip), vehicle: steriod suspending solution).
For `CC(=O)OCC1OC(N2C(=O)/C(=C/c3c(Cl)cccc3Cl)SC2=S)C(OC(C)=O)C(OC(C)=O)C1OC(C)=O` (stereo not given), the T/C was 103 % of control under setting [4]; 101 % of control (endpoint: mean survival time, dose: 50.0 mg/kg/injection, schedule: Q01DX005 (ip), vehicle: other); 104 % of control (endpoint: mean survival time, dose: 100.0 mg/kg/injection, schedule: Q01DX005 (ip), vehicle: other); 93 % of control (endpoint: mean survival time, dose: 200.0 mg/kg/injection, schedule: Q01DX005 (ip), vehicle: other).
As for `Cc1cc2c(=O)[nH]c(N)nc2nc1C`, the T/C reads like this: (endpoint: mean survival time, dose: 100.0 mg/kg/injection, schedule: Q01DX Z (ip), vehicle: methylcellulose (MC)) 95 % of control; (endpoint: mean survival time, dose: 200.0 mg/kg/injection, schedule: Q01DX Z (ip), vehicle: methylcellulose (MC)) 94 % of control.
As for `CCOC(=O)N(c1ccccc1)C1OCC(OC(C)=O)C(OC(C)=O)C1OC(C)=O` (stereo not given), the T/C (endpoint: mean survival time, dose: 100.0 mg/kg/injection, schedule: Q01DX009 (ip), vehicle: saline) was 97 % of control; the T/C (endpoint: mean survival time, dose: 100.0 mg/kg/injection, schedule: Q04DX003 (ip), vehicle: water) was 97 % of control; the T/C (endpoint: mean survival time, dose: 200.0 mg/kg/injection, schedule: Q01DX009 (ip), vehicle: saline) was 93 % of control; the T/C (endpoint: mean survival time, dose: 200.0 mg/kg/injection, schedule: Q04DX003 (ip), vehicle: water) was 97 % of control; the T/C (endpoint: mean survival time, dose: 400.0 mg/kg/injection, schedule: Q01DX009 (ip), vehicle: saline) is 94 % of control; the T/C (endpoint: mean survival time, dose: 400.0 mg/kg/injection, schedule: Q04DX003 (ip), vehicle: water) is 94 % of control.
As for `COc1cc(\C=N/N=C/C=C/c2ccccc2)cc(OC)c1OC`, the T/C is, setting by setting: (endpoint: mean survival time, dose: 50.0 mg/kg/injection, schedule: Q04DX003 (ip), vehicle: saline with Tween-80) 95 % of control; (endpoint: mean survival time, dose: 100.0 mg/kg/injection, schedule: Q04DX002 (ip), vehicle: saline with Tween-80) 87 % of control and 90 % of control; (endpoint: mean survival time, dose: 200.0 mg/kg/injection, schedule: Q04DX002 (ip), vehicle: saline with Tween-80) 104 % of control and 113 % of control; (endpoint: mean survival time, dose: 400.0 mg/kg/injection, schedule: Q04DX002 (ip), vehicle: saline with Tween-80) 102 % of control and 103 % of control; (endpoint: mean survival time, dose: 400.0 mg/kg/injection, schedule: Q04DX003 (ip), vehicle: saline with Tween-80) 93 % of control and 88 % of control.
On to `CC1=C/C(=N/NC(N)=O)CC(C)(C)C1`, for which the T/C under setting [5] is 93 % of control, the T/C under setting [6] is 93 % of control and the T/C under setting [7] is 98 % of control.
With `CCN(CC)CCCNC(c1ccc(OC)c(OC)c1)C(Cl)(Cl)Cl` (stereo not given), the T/C by setting is: under setting [8], 98 % of control; under setting [9], 91 % of control.
On to `C/C=C\c1ccc(OC(=O)NC)c(OC)c1`, for which the T/C is, setting by setting: under setting [1], 99 % of control; under setting [2], 97 % of control and 104 % of control; (endpoint: mean survival time, dose: 100.0 mg/kg/injection, schedule: Q04DX002 (ip), vehicle: Klucel (hydroxypropylcellulose) (HPC)) 100 % of control; (endpoint: mean survival time, dose: 100.0 mg/kg/injection, schedule: Q04DX002 (ip), vehicle: carboxymethylcellulose (CMC)) 98 % of control and 104 % of control; (endpoint: mean survival time, dose: 100.0 mg/kg/injection, schedule: Q04DX003 (ip), vehicle: carboxymethylcellulose (CMC)) 96 % of control; under setting [3], 100 % of control. In addition, the T/C was 103 % of control and 104 % of control (endpoint: mean survival time, dose: 200.0 mg/kg/injection, schedule: Q01DX009 (ip), vehicle: carboxymethylcellulose (CMC)); 103 % of control (endpoint: mean survival time, dose: 200.0 mg/kg/injection, schedule: Q04DX002 (ip), vehicle: Klucel (hydroxypropylcellulose) (HPC)); 98 % of control and 108 % of control (endpoint: mean survival time, dose: 200.0 mg/kg/injection, schedule: Q04DX002 (ip), vehicle: carboxymethylcellulose (CMC)); 93 % of control (endpoint: mean survival time, dose: 200.0 mg/kg/injection, schedule: Q04DX003 (ip), vehicle: carboxymethylcellulose (CMC)); 99 % of control under setting [10]; 100 % of control and 101 % of control (endpoint: mean survival time, dose: 400.0 mg/kg/injection, schedule: Q01DX009 (ip), vehicle: carboxymethylcellulose (CMC)). The T/C by setting is: (endpoint: mean survival time, dose: 400.0 mg/kg/injection, schedule: Q04DX002 (ip), vehicle: Klucel (hydroxypropylcellulose) (HPC)) 103 % of control; (endpoint: mean survival time, dose: 400.0 mg/kg/injection, schedule: Q04DX002 (ip), vehicle: carboxymethylcellulose (CMC)) 93 % of control and 98 % of control; (endpoint: mean survival time, dose: 400.0 mg/kg/injection, schedule: Q04DX003 (ip), vehicle: carboxymethylcellulose (CMC)) 93 % of control.
As to `CC(C)NC(=O)c1ccccc1`, the T/C by setting is: (endpoint: mean survival time, dose: 100.0 mg/kg/injection, schedule: Q01DX001 (ip), vehicle: Klucel (hydroxypropylcellulose) (HPC)) 96 % of control; (endpoint: mean survival time, dose: 100.0 mg/kg/injection, schedule: Q04DX003 (ip), vehicle: Klucel (hydroxypropylcellulose) (HPC)) 96 % of control; (endpoint: mean survival time, dose: 200.0 mg/kg/injection, schedule: Q01DX001 (ip), vehicle: Klucel (hydroxypropylcellulose) (HPC)) 98 % of control; (endpoint: mean survival time, dose: 200.0 mg/kg/injection, schedule: Q04DX003 (ip), vehicle: Klucel (hydroxypropylcellulose) (HPC)) 103 % of control; (endpoint: mean survival time, dose: 400.0 mg/kg/injection, schedule: Q01DX001 (ip), vehicle: Klucel (hydroxypropylcellulose) (HPC)) 101 % of control; (endpoint: mean survival time, dose: 400.0 mg/kg/injection, schedule: Q04DX003 (ip), vehicle: Klucel (hydroxypropylcellulose) (HPC)) 101 % of control.
As to `O=C(Nc1ccc(CCO)cc1)Nc1cccc(F)c1`, the T/C by setting is: (endpoint: mean survival time, dose: 100.0 mg/kg/injection, schedule: Q01DX009 (ip), vehicle: Klucel (hydroxypropylcellulose) (HPC)) 103 % of control; (endpoint: mean survival time, dose: 200.0 mg/kg/injection, schedule: Q01DX009 (ip), vehicle: Klucel (hydroxypropylcellulose) (HPC)) 102 % of control; (endpoint: mean survival time, dose: 400.0 mg/kg/injection, schedule: Q01DX009 (ip), vehicle: Klucel (hydroxypropylcellulose) (HPC)) 88 % of control.
For `CC(=O)OCC1OC(N2C(=O)/C(=C/c3ccc(Cl)cc3)SC2=S)C(OC(C)=O)C(OC(C)=O)C1OC(C)=O` (stereo not given), under setting [4], the T/C was 97 % of control.
Regarding `CC(CC(=O)c1ccc(F)cc1)N1CCCCC1` (stereo not given), the T/C is 95 % of control under setting [1] and 98 % of control under setting [3].
As to `CC1=N/C(=N\c2nc3ccccc3[nH]2)NC(=O)CC1`, the T/C by setting is: under setting [8], 101 % of control; under setting [9], 93 % of control.
As to `CCSC1C(O)OC(CO)C(O)C1O` (stereo not given), the T/C under setting [5] was 95 % of control, the T/C under setting [6] was 106 % of control and the T/C under setting [7] is 104 % of control.
As to `CC1=NN(c2ccccc2)C(=O)C1N=Nc1ccc(S(=O)(=O)Nc2occ(C)c2C)cc1` (stereo not given), the T/C was 90 % of control under setting [1], 90 % of control under setting [3] and 93 % of control under setting [10].
